Experimental data from the NIST ThermoML archive (doi:10.1021/je400054m).
Numbers after ± are expanded uncertainties.

Columns and labels:
[1] = DTA
[2] = Molar enthalpy of transition or fusion; details: DSC

Structure (SMILES)	Normal melting temperature ([1]; Crystal 1) [°C]	Triple point temperature ([1]; Crystal 2) [K]	Molar enthalpy of transition or fusion ([2]; Crystal 1) [kcal/mol]	Molar enthalpy of transition or fusion ([2]; Crystal 2) [kcal/mol]	Triple point temperature ([1]; Crystal 3) [K]	Molar enthalpy of transition or fusion ([2]; Crystal 3) [kcal/mol]	Normal melting temperature ([1]; Crystal) [°C]	Molar enthalpy of transition or fusion ([2]; Crystal) [kcal/mol]
CCCCCCCCC(=O)[O-].[Li+] [lithium nonanoate]	251.10 ± 0.7	348.95 ± 0.7	6.13 ± 0.382	1.92 ± 0.129				
CCCCCCCCCCC(=O)[O-].[Li+] [lithium undecanoate]	235.50 ± 0.7	364.55 ± 0.7	6.76 ± 0.43	3.3 ± 0.21				
CCCCCCCCCCCC(=O)[O-].[Li+] [lithium dodecanoate]	227.40 ± 0.7	346.05 ± 0.7	6.78 ± 0.43	1.66 ± 0.112	314.45 ± 0.7	0.138 ± 0.0335		
CCCCCCC(=O)[O-].[Li+] [lithium heptanoate]	274.40 ± 0.7	316.55 ± 0.7	5.93 ± 0.382	1.49 ± 0.1				
CCCC(=O)[O-].[Li+] [lithium butanoate]							316.80 ± 0.7	4.96 ± 0.311
CCCCC(=O)[O-].[Li+] [lithium pentanoate]	301.10 ± 0.7	323.45 ± 0.7	5.25 ± 0.335	0.941 ± 0.0693				
CC(=O)[O-].[Li+] [lithium acetate]							283.10 ± 0.7	2.87 ± 0.186
CCCCCCCCCC(=O)[O-].[Li+] [lithium decanoate]		309.65 ± 0.7		0.111 ± 0.0287				
O=C[O-].[Li+] [lithium methanoate]	272.20 ± 0.7	508.55 ± 0.7	3.84 ± 0.239	0.451 ± 0.043				
CCCCCC(=O)[O-].[Li+] [lithium hexanoate]							287.20 ± 0.7	5.49 ± 0.359
CCC(=O)[O-].[Li+] [propionic acid, lithium salt]	331.00 ± 0.7	530.55 ± 0.7	3.81 ± 0.239	0.817 ± 0.0645				
CCCCCCCC(=O)[O-].[Li+] [lithium octanoate]							264.30 ± 0.7	5.73 ± 0.359
